Measurements taken from PMC7316778 (Nature Communications, 2020).
Like-named read-outs stand apart in the source and are kept apart here.

Experiments:
Experiment in all cases: SelectScreen kinase assay
LRRK2 FL = LRRK2 FL (Homo sapiens, UniProt Q5S007)
Procedure: (§1) Selectivity profiling assays were performed by the Invitrogen SelectScreen™ Services. […] The concentration of ATP was selected to be equal to the KM, unless indicated otherwise.

ROS1 = ROS1 (Homo sapiens, UniProt P08922)
Procedure: as §1

FRK (PTK5) = FRK (PTK5) (Homo sapiens, UniProt P42685); conditions: for Inhibition at 1 µM (%): FRK (PTK5), ZLYTE, ATP Km app
Procedure: as §1

NLK = NLK (Homo sapiens, UniProt Q9UBE8)
Procedure: as §1

AURKA (Aurora A) = biological target: T1, AURKA (Aurora A) (Homo sapiens, UniProt O14965)
T1 sequence (O14965 1-403): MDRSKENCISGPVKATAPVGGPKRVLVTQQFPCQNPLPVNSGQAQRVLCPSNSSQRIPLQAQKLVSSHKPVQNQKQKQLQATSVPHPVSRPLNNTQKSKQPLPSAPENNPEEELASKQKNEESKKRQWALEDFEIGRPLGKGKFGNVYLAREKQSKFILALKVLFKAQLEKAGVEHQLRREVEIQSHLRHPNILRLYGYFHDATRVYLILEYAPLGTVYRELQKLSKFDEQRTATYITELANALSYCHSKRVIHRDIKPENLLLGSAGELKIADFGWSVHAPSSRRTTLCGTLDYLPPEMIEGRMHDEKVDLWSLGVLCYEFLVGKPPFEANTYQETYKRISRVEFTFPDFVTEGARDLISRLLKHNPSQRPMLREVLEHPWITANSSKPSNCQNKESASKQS
Procedure: as §1

PRKD2 (PKD2) = biological target: T2, PRKD2 (PKD2) (Homo sapiens, UniProt Q9BZL6); conditions: for Inhibition at 1 µM (%): ZLYTE, ATP Km app
T2 sequence (Q9BZL6 1-878): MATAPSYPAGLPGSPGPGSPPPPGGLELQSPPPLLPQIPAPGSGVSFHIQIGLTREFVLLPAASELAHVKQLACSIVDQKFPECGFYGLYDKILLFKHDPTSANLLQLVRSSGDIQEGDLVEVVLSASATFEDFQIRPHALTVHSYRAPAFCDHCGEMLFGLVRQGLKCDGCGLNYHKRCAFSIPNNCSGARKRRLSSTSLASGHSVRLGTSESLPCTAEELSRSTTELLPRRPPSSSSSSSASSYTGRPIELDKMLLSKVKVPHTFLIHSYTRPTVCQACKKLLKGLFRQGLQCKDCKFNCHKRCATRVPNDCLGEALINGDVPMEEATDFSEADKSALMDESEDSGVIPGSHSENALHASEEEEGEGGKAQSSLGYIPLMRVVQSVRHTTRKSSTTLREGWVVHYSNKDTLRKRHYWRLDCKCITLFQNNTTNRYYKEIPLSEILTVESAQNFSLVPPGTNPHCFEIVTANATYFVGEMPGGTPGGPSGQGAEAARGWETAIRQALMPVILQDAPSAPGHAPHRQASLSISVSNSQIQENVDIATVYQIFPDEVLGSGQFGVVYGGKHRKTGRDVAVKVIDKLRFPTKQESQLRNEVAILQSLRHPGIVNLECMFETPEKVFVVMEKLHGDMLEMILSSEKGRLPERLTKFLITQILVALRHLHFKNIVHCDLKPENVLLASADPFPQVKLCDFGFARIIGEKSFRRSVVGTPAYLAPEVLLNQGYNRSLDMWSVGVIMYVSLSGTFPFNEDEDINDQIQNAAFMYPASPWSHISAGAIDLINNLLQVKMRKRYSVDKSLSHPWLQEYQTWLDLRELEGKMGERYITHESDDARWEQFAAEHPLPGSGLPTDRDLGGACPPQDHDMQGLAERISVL
Procedure: as §1

[1] = 1 h, 1 μM WEL028, 1 h preincubation
[2] = 1 h, log[inhibitor] (M) -5.00, ZLYTE, ATP Km app
[3] = 1 h, log[inhibitor] (M) -5.48, ZLYTE, ATP Km app
[4] = 1 h, log[inhibitor] (M) -5.95, ZLYTE, ATP Km app
[5] = 1 h, log[inhibitor] (M) -6.43, ZLYTE, ATP Km app
[6] = 1 h, log[inhibitor] (M) -6.91, ZLYTE, ATP Km app
[7] = IC50 on that kinase divided by IC50 on FES^S700C

Sequence of ROS1 (P08922 28-2347, species assumed): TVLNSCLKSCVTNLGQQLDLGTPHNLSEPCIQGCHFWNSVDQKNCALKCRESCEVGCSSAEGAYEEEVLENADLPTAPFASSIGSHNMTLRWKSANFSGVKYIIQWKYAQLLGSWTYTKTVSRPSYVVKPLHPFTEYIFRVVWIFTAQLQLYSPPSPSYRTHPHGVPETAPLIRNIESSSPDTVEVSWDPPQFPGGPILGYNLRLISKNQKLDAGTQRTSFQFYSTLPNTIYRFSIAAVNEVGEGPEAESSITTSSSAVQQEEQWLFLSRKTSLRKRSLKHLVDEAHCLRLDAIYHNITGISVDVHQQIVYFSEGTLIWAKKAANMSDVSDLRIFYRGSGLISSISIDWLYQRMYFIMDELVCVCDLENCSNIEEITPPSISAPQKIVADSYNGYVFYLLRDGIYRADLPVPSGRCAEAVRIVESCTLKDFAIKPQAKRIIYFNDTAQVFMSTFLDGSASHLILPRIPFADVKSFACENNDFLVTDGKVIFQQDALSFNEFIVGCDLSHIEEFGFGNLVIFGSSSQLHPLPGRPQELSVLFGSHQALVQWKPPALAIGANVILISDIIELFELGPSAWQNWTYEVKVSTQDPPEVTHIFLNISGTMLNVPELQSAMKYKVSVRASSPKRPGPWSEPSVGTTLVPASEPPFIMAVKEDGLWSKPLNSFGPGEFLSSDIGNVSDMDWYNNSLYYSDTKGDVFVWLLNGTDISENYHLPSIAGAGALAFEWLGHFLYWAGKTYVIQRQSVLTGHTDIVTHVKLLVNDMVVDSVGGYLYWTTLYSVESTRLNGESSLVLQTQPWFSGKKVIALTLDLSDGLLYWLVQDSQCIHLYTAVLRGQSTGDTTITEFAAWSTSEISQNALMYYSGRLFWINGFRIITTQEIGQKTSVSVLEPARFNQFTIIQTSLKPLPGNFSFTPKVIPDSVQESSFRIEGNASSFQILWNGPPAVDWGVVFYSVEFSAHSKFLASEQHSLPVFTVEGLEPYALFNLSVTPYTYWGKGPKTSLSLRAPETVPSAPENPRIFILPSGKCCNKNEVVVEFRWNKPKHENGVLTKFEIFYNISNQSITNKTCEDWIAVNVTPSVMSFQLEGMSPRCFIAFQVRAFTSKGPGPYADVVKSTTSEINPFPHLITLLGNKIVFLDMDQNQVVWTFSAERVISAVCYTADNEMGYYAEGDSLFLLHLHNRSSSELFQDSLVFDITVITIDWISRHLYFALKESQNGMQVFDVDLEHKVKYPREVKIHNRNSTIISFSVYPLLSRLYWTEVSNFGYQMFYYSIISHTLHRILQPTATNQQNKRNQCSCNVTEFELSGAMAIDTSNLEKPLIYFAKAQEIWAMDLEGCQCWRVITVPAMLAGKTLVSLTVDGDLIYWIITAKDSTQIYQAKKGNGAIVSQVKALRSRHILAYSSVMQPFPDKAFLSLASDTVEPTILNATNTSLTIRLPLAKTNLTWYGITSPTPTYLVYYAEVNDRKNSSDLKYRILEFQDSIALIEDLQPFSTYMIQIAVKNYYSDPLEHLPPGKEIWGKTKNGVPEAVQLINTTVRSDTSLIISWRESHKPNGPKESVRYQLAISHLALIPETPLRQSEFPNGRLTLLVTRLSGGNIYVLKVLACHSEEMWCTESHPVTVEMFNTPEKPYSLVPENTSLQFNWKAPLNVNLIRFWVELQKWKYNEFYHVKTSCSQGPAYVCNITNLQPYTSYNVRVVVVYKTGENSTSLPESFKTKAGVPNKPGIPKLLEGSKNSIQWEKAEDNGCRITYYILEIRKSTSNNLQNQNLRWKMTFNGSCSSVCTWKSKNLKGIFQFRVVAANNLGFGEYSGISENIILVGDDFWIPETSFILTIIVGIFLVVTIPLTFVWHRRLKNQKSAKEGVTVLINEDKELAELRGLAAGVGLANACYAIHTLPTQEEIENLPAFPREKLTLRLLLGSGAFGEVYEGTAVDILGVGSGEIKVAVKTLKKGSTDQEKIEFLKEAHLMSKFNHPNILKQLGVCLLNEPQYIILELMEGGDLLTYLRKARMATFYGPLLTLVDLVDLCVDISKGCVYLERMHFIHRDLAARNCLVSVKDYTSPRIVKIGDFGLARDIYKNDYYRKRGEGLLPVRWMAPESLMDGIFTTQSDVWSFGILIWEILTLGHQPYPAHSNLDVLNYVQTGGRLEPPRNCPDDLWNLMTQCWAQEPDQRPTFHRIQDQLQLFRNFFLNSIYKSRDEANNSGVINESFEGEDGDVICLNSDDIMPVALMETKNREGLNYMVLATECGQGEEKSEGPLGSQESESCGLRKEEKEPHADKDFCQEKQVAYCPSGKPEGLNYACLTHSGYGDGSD
Sequence of FRK (PTK5) (P42685 whole entry): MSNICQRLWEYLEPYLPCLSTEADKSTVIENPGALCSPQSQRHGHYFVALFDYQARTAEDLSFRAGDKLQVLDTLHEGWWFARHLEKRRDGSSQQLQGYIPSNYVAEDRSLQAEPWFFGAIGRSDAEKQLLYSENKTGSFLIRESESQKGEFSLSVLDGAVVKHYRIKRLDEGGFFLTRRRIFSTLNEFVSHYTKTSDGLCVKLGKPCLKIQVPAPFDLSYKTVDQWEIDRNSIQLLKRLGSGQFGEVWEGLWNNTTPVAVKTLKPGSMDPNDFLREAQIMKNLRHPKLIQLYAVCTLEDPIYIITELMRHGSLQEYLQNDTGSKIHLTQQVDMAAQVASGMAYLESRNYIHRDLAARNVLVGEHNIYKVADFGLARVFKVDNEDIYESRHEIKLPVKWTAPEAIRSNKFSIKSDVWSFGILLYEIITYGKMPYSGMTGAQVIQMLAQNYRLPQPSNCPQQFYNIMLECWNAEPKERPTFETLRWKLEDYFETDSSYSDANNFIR
Sequence of NLK (Q9UBE8 whole entry): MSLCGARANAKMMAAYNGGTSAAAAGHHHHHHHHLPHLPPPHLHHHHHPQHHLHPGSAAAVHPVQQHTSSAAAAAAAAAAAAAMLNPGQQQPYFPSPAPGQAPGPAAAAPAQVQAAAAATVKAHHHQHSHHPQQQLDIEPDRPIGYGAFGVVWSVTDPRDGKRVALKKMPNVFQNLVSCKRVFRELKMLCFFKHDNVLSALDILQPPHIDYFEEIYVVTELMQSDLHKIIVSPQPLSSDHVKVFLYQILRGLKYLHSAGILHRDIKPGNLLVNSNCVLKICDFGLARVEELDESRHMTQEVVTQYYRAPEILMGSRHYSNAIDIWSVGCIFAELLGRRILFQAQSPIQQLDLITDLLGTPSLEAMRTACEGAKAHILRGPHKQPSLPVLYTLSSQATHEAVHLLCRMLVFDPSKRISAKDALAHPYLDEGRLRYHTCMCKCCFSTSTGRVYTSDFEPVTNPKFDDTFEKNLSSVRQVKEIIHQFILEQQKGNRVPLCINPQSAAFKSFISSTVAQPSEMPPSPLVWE

Compound `C#CCOc1ccc(Nc2ncc(Cl)c(Nc3ccccc3NC(=O)C=C)n2)c(OC)c1` [Compound 6] has an inhibition at 1 µM (LRRK2 FL; [1]) of 97%, an inhibition at 10 µM (LRRK2 FL; 1 h, log[inhibitor] (M) -5.00, Adapta, ATP Km app) of 100% and an inhibition at 3.311 µM (LRRK2 FL; 1 h, log[inhibitor] (M) -5.48, Adapta, ATP Km app) of 100%. It also gave an inhibition at 1.122 µM (LRRK2 FL; 1 h, log[inhibitor] (M) -5.95, Adapta, ATP Km app) of 100%, an inhibition at 0.3715 µM (LRRK2 FL; 1 h, log[inhibitor] (M) -6.43, Adapta, ATP Km app) of 100% and an inhibition at 0.123 µM (LRRK2 FL; 1 h, log[inhibitor] (M) -6.91, Adapta, ATP Km app) of 86%. For the same compound, the inhibition at 0.04074 µM (LRRK2 FL; 1 h, log[inhibitor] (M) -7.39, Adapta, ATP Km app) was 39%, the “Inhibition at 1 µM (%)” value (LRRK2 FL; LRRK2 FL, 1 µM, Adapta, ATP Km app, listed as WEL028, 1 µM) was 96% and the inhibition at 1 µM (LRRK2 FL; read-out: Inhibition at 1 µM (%), LRRK2 FL, 1 µM, Adapta, ATP Km app) was 98%. For the same compound, the IC50 (ROS1) was over 10 µM, the “Inhibition at 1 µM (%)” value (ROS1; 1 µM, ZLYTE, ATP Km app, listed as WEL028, 1 µM) was 52% and the inhibition at 1 µM (ROS1; [1]) was 56%. For the same compound, the inhibition at 10 µM (ROS1; [2]) was 76%, the inhibition at 3.31 µM (ROS1; [3]) was 80% and the inhibition at 1.12 µM (ROS1; [4]) was 53%. It also gave an inhibition at 0.372 µM (ROS1; [5]) of 42%, an inhibition at 0.123 µM (ROS1; [6]) of 23% and an inhibition at 0.00151 µM (ROS1; 1 h, log[inhibitor] (M) -8.82, ZLYTE, ATP Km app) of 6%. It also gave an Apparent fold selectivity (ROS1; [7]) of over 238 fold, an inhibition at 1 µM (ROS1; read-out: Inhibition at 1 µM (%), 1 µM, ZLYTE, ATP Km app) of 60% and an inhibition at 1 µM (FRK (PTK5); [1]) of 7%. For the same compound, the “Inhibition at 1 µM (%)” value (FRK (PTK5)) was 11%, the “Inhibition at 1 µM (%)” value (FRK (PTK5); listed as WEL028, 1 µM) was 4% and the inhibition at 1 µM (NLK; [1]) was 3%. The inhibition at 1 µM (NLK; read-out: Inhibition at 1 µM (%), NLK, 1 µM, LanthaScreen Binding) was 4%, the IC50 (AURKA (Aurora A)) was 631 nM and the inhibition at 1 µM (AURKA (Aurora A); [1]) was 74%. The inhibition at 10 µM (AURKA (Aurora A); [2]) was 100%, the inhibition at 3.31 µM (AURKA (Aurora A); [3]) was 90% and the inhibition at 1.12 µM (AURKA (Aurora A); [4]) was 69%. The inhibition at 0.372 µM (AURKA (Aurora A); [5]) was 46%, the inhibition at 0.123 µM (AURKA (Aurora A); [6]) was 28% and the inhibition at 0.04074 µM (AURKA (Aurora A); 1 h, log[inhibitor] (M) -7.39, ZLYTE, ATP Km app) was 16%. For the same compound, the inhibition at 0.0138 µM (AURKA (Aurora A); 1 h, log[inhibitor] (M) -7.86, ZLYTE, ATP Km app) was 8%, the inhibition at 0.004571 µM (AURKA (Aurora A); 1 h, log[inhibitor] (M) -[…], ZLYTE, ATP Km app) was 3% and the “Inhibition at 1 µM (%)” value (AURKA (Aurora A); AURKA (Aurora A), 1 µM, ZLYTE, ATP Km app, listed as WEL028, 1 µM) was 70%. The Apparent fold selectivity (AURKA (Aurora A); [7]) was 155 fold, the inhibition at 1 µM (AURKA (Aurora A); read-out: Inhibition at 1 µM (%), AURKA (Aurora A), 1 µM, ZLYTE, ATP Km app) was 78% and the “Inhibition at 1 µM (%)” value (PRKD2 (PKD2)) was 2%. For the same compound, the “Inhibition at 1 µM (%)” value (PRKD2 (PKD2); listed as WEL028, 1 µM) was 5% and the inhibition at 1 µM (PRKD2 (PKD2); [1]) was 3%.
